Results reported in the NIST ThermoML archive (doi:10.1016/j.jct.2013.09.024).

Experiment: xn = mol fraction of the nth substance listed
Settings: Liquid, Vibrating tube method

CC1(C)C(=O)[C@]2(C)CC[C@H]1C2 [(-)-fenchone] + CCO
mass density [kg/m3]
Settings | 101 kPa | 20000 kPa | 25000 kPa | 30000 kPa | 35000 kPa | 40000 kPa
313.15 K, x1 = 0.0481 | 791.46 | – | – | – | – | –
313.15 K, x1 = 0.051 | – | 810.1 | 814 | 817.7 | 821.3 | 824.8
313.15 K, x1 = 0.0985 | 808.84 | – | – | – | – | –
313.15 K, x1 = 0.0992 | – | 826.1 | 829.9 | 833.6 | 837.1 | 840.5
313.15 K, x1 = 0.199 | – | 852.8 | 856.5 | 860 | 863.5 | 866.8
313.15 K, x1 = 0.2002 | 836.65 | – | – | – | – | –
313.15 K, x1 = 0.3002 | 857.52 | – | – | – | – | –
313.15 K, x1 = 0.301 | – | 873.6 | 877.2 | 880.6 | 883.9 | 887.1
313.15 K, x1 = 0.3968 | – | 889.1 | 892.6 | 895.9 | 899.2 | 902.4
313.15 K, x1 = 0.4031 | 874.42 | – | – | – | – | –
313.15 K, x1 = 0.4976 | – | 902.4 | 905.9 | 909.2 | 912.4 | 915.5
313.15 K, x1 = 0.5012 | 887.46 | – | – | – | – | –
313.15 K, x1 = 0.5924 | – | 912.6 | 916 | 919.2 | 922.5 | 925.5
313.15 K, x1 = 0.5976 | 898.09 | – | – | – | – | –
313.15 K, x1 = 0.6956 | – | 922 | 925.3 | 928.5 | 931.7 | 934.7
313.15 K, x1 = 0.697 | 907.3 | – | – | – | – | –
313.15 K, x1 = 0.7897 | 914.58 | – | – | – | – | –
313.15 K, x1 = 0.7942 | – | 929.7 | 933 | 936.1 | 939.3 | 942.3
313.15 K, x1 = 0.8929 | – | 936.3 | 939.6 | 942.7 | 945.8 | 948.8
313.15 K, x1 = 0.899 | 922.06 | – | – | – | – | –
313.15 K, x1 = 0.9454 | – | 939.4 | 942.7 | 945.8 | 948.9 | 951.9
313.15 K, x1 = 0.9486 | 925.06 | – | – | – | – | –
313.15 K, x1 = 1 | 928.04 | 942.3 | 945.6 | 948.7 | 951.8 | 954.7
328.15 K, x1 = 0.0481 | 777.95 | – | – | – | – | –
328.15 K, x1 = 0.051 | – | 798 | 802.1 | 806.1 | 810 | 813.7
328.15 K, x1 = 0.0985 | 795.29 | – | – | – | – | –
328.15 K, x1 = 0.0992 | – | 813.9 | 818 | 821.9 | 825.7 | 829.3
328.15 K, x1 = 0.199 | – | 840.6 | 844.6 | 848.3 | 852 | 855.5
328.15 K, x1 = 0.2002 | 823.07 | – | – | – | – | –
328.15 K, x1 = 0.3002 | 844.02 | – | – | – | – | –
328.15 K, x1 = 0.301 | – | 861.4 | 865.3 | 869 | 872.5 | 876
328.15 K, x1 = 0.3968 | – | 876.8 | 880.6 | 884.2 | 887.7 | 891.1
328.15 K, x1 = 0.4031 | 861.01 | – | – | – | – | –
328.15 K, x1 = 0.4976 | – | 890.1 | 893.7 | 897.3 | 900.8 | 904.2
328.15 K, x1 = 0.5012 | 874.13 | – | – | – | – | –
328.15 K, x1 = 0.5924 | – | 900.5 | 904.1 | 907.7 | 911.1 | 914.4
328.15 K, x1 = 0.5976 | 884.87 | – | – | – | – | –
328.15 K, x1 = 0.6956 | – | 910.1 | 913.7 | 917.2 | 920.6 | 923.8
328.15 K, x1 = 0.697 | 894.19 | – | – | – | – | –
328.15 K, x1 = 0.7897 | 901.6 | – | – | – | – | –
328.15 K, x1 = 0.7942 | – | 917.8 | 921.3 | 924.8 | 928.1 | 931.4
328.15 K, x1 = 0.8929 | – | 924.4 | 927.9 | 931.4 | 934.7 | 937.8
328.15 K, x1 = 0.899 | 909.23 | – | – | – | – | –
328.15 K, x1 = 0.9454 | – | 927.7 | 931.2 | 934.5 | 937.8 | 941
328.15 K, x1 = 0.9486 | 912.33 | – | – | – | – | –
328.15 K, x1 = 1 | 915.39 | 930.8 | 934.2 | 937.6 | 940.9 | 944
